According to article PMC10743086, “Immunofluorescence-Based Assay for High-Throughput Analysis of Multidrug Resistance Markers in Non-Small Cell Lung Carcinoma Patient-Derived Cells” (Diagnostics, 2023):

Legend:
Type in all cases: cell-based, human
[1] = tested on: ABCB1 expression in cancer cells (CK8/18+); assay: Immunofluorescence assay of ABCB1 expression in patient-derived NSCLC cultures; conditions: 7 days
In short: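 Read-out is immunofluorescence, with cytokeratin 8/18 marking cancer cells and CK8/18-negative cells counted as non-cancer, co-stained for ABC transporters. Patient-derived NSCLC cultures at 1000 cells per well received compounds 72 h post-seeding for 7 days.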

[2] = tested on: Non-cancer cells (CK8/18-) of patient-derived NSCLC cultures; assay: Cytotoxicity in patient-derived NSCLC cultures, non-cancer cells; conditions: Homo sapiens, 168 h, 7 days treatment
In short: (§1)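 First, tumour pieces are dissociated at 37 °C for 90 min and cultured at 37 °C, 5% CO2 until confluent. Then cells are seeded at 1000 per well and exposed to drugs for 7 days starting 72 h later. Finally, fixed cells are immunostained for CK8/18 plus ABCC1 or ABCG2.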

[3] = tested on: ABCB1 expression in NCI-H460/R cells; assay: Immunofluorescence assay of MDR marker ABCB1 expression; conditions: five concentrations, 24 h
In short: (§2)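 Compounds added 48 h after seeding, then 24 h exposure. Cells fixed in 4% paraformaldehyde, BSA-blocked, co-stained for ABCB1 with CK8/18 to separate cancer from stromal cells; 4x automated imaging. Cytotoxicity from cell-count scoring; ABCB1 expression from multi-wavelength cell scoring.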

[4] = tested on: ABCB1 expression in MRC-5 cells; assay: as above; conditions: five concentrations, 24 h
In short: as §2

[5] = tested on: ABCB1 expression in NCI-H460 cells; assay: as above; conditions: five concentrations, 24 h
In short: as §2

[6] = tested on: Cancer cells (CK8/18+) of patient-derived NSCLC cultures; assay: Cytotoxicity in patient-derived NSCLC cultures, cancer cells; conditions: Homo sapiens, 168 h, 7 days treatment
In short: as §1

NCI-H460/R cells = assay: Cytotoxicity by immunofluorescence cell scoring (cell counts), multidrug-resistant NSCLC cell line; conditions: for IC50: Homo sapiens, 24 h treatment
In short: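 ABCB1-overexpressing NCI-H460/R cells, doxorubicin-selected, treated 48 h after seeding for 24 h. Cytotoxicity from automated imaging cell counts after fixation and CK8/18 plus MDR-marker immunostaining, using cell-scoring analysis.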

[7] = tested on: ABCC1 expression in cancer cells (CK8/18+); assay: Immunofluorescence assay of ABCC1 expression in patient-derived NSCLC cultures; conditions: 7 days
In short: as §1

[8] = culture TR58, cancer cells (CK8/18+)
[9] = culture TR64, cancer cells (CK8/18+)
[10] = culture TR65, cancer cells (CK8/18+)
[11] = culture TR84, cancer cells (CK8/18+)
[12] = culture TR87, cancer cells (CK8/18+)
[13] = culture TR58, non-cancer cells (CK8/18-)
[14] = culture TR64, non-cancer cells (CK8/18-)
[15] = culture TR65, non-cancer cells (CK8/18-)
[16] = culture TR84, non-cancer cells (CK8/18-)
[17] = culture TR87, non-cancer cells (CK8/18-)
[18] = NCI-H460/R (co-culture with MRC-5)
[19] = MRC-5 (co-culture with NCI-H460)
[20] = MRC-5 (co-culture with NCI-H460/R)
[21] = NCI-H460 (co-culture with MRC-5)

| SMILES | ABCB1 Expression [1, 8] | ABCB1 Expression [1, 9] | ABCB1 Expression [1, 10] | ABCB1 Expression [1, 11] | ABCB1 Expression [1, 12] | IC50 [2, 13] | IC50 [2, 14] | IC50 [2, 15] | IC50 [2, 16] | IC50 [2, 17] | ABCB1 Expression [3, 18] | ABCB1 Expression ([3]; NCI-H460/R monoculture) | ABCB1 Expression [4, 19] | ABCB1 Expression [4, 20] | ABCB1 Expression ([4]; MRC-5 monoculture) | ABCB1 Expression [5, 21] | ABCB1 Expression ([5]; NCI-H460 monoculture) | IC50 [6, 8] | IC50 [6, 9] | IC50 [6, 10] | further results |
| --- | --- | --- | --- | --- | --- | --- | --- | --- | --- | --- | --- | --- | --- | --- | --- | --- | --- | --- | --- | --- | --- |
| CC(=O)O[C@H]1C(=O)[C@@]2(C)[C@H]([C@H](OC(=O)c3ccccc3)[C@]3(O)C[C@H](OC(=O)[C@H](O)[C@@H](NC(=O)c4ccccc4)c4ccccc4)C(C)=C1C3(C)C)[C@]1(OC(C)=O)CO[C@@H]1C[C@@H]2O [Paclitaxel, paclitaxel] | increase (An increase in ABCB1, ABCC1, or ABCG2 expression of at least 20% at a minimum of one concentration is shown in the table.) | increase (An increase in ABCB1, ABCC1, or ABCG2 expression of at least 20% at a minimum of one concentration is shown in the table.) | increase (An increase in ABCB1, ABCC1, or ABCG2 expression of at least 20% at a minimum of one concentration is shown in the table.) | increase (An increase in ABCB1, ABCC1, or ABCG2 expression of at least 20% at a minimum of one concentration is shown in the table.) | increase (An increase in ABCB1, ABCC1, or ABCG2 expression of at least 20% at a minimum of one concentration is shown in the table.) | 1.4 µM | 1.95 µM | 1.4 µM | 0.312 µM | 1.87 µM | no change | no change | no change | no change | no change | increase (An increase in ABCB1 expression of at least 20% at a minimum of one concentration is shown in the table.) | increase (An increase in ABCB1 expression of at least 20% at a minimum of one concentration is shown in the table.) | 1.18 µM | 1.35 µM | 1.18 µM | IC50 [6, 11]: 2.57 µM; IC50 [6, 12]: 4.79 µM; IC50 (NCI-H460/R cells; [18]): > 5 µM; IC50 (NCI-H460/R cells; NCI-H460/R monoculture): > 5 µM; ABCC1 expression [7, 8]: no change; ABCC1 expression [7, 9]: increase (An increase in ABCB1, ABCC1, or ABCG2 expression of at least 20% at a minimum of one concentration is shown in the table.); ABCC1 expression [7, 10]: increase (An increase in ABCB1, ABCC1, or ABCG2 expression of at least 20% at a minimum of one concentration is shown in the table.); ABCC1 expression [7, 11]: increase (An increase in ABCB1, ABCC1, or ABCG2 expression of at least 20% at a minimum of one concentration is shown in the table.); ABCC1 expression [7, 12]: increase (An increase in ABCB1, ABCC1, or ABCG2 expression of at least 20% at a minimum of one concentration is shown in the table.) |
| Nc1nc2[nH]cc(CCc3ccc(C(=O)N[C@@H](CCC(=O)O)C(=O)O)cc3)c2c(=O)[nH]1 [Pemetrexed, pemetrexed] | no change | no change | no change | increase (An increase in ABCB1, ABCC1, or ABCG2 expression of at least 20% at a minimum of one concentration is shown in the table.) | increase (An increase in ABCB1, ABCC1, or ABCG2 expression of at least 20% at a minimum of one concentration is shown in the table.) | > 300 µM | > 300 µM | 25.2 µM | > 300 µM | > 300 µM | no change | no change | no change | no change | no change | no change | no change | 181 µM | 252 µM | 231 µM | IC50 [6, 11]: > 300 µM; IC50 [6, 12]: > 300 µM; IC50 (NCI-H460/R cells; [18]): > 300 µM; IC50 (NCI-H460/R cells; NCI-H460/R monoculture): > 300 µM; ABCC1 expression [7, 8]: no change; ABCC1 expression [7, 9]: no change; ABCC1 expression [7, 10]: increase (An increase in ABCB1, ABCC1, or ABCG2 expression of at least 20% at a minimum of one concentration is shown in the table.); ABCC1 expression [7, 11]: increase (An increase in ABCB1, ABCC1, or ABCG2 expression of at least 20% at a minimum of one concentration is shown in the table.); ABCC1 expression [7, 12]: increase (An increase in ABCB1, ABCC1, or ABCG2 expression of at least 20% at a minimum of one concentration is shown in the table.) |
| CCC1=C[C@@H]2CN(C1)Cc1c([nH]c3ccccc13)[C@@](C(=O)OC)(c1cc3c(cc1OC)N(C)[C@H]1[C@@](O)(C(=O)OC)[C@H](OC(C)=O)[C@]4(CC)C=CCN5CC[C@]31[C@@H]54)C2 [Vinorelbine] | no change | increase (An increase in ABCB1, ABCC1, or ABCG2 expression of at least 20% at a minimum of one concentration is shown in the table.) | increase (An increase in ABCB1, ABCC1, or ABCG2 expression of at least 20% at a minimum of one concentration is shown in the table.) | increase (An increase in ABCB1, ABCC1, or ABCG2 expression of at least 20% at a minimum of one concentration is shown in the table.) | increase (An increase in ABCB1, ABCC1, or ABCG2 expression of at least 20% at a minimum of one concentration is shown in the table.) | 0.16 µM | 0.184 µM | 0.0328 µM | 0.0339 µM | 0.361 µM | no change | no change | no change | no change | no change | increase (An increase in ABCB1 expression of at least 20% at a minimum of one concentration is shown in the table.) | increase (An increase in ABCB1 expression of at least 20% at a minimum of one concentration is shown in the table.) | 0.129 µM | 0.172 µM | > 1 µM | IC50 [6, 11]: 0.176 µM; IC50 [6, 12]: > 1 µM; IC50 (NCI-H460/R cells; [18]): 0.839 µM; IC50 (NCI-H460/R cells; NCI-H460/R monoculture): 0.99 µM; resistance of NCI-H460/R cells compared to the NCI-H460 cells (NCI-H460/R cells; ratio of IC50 values, monocultures): 27 fold; ABCC1 expression [7, 8]: no change; ABCC1 expression [7, 9]: increase (An increase in ABCB1, ABCC1, or ABCG2 expression of at least 20% at a minimum of one concentration is shown in the table.); ABCC1 expression [7, 10]: increase (An increase in ABCB1, ABCC1, or ABCG2 expression of at least 20% at a minimum of one concentration is shown in the table.); ABCC1 expression [7, 11]: increase (An increase in ABCB1, ABCC1, or ABCG2 expression of at least 20% at a minimum of one concentration is shown in the table.); ABCC1 expression [7, 12]: increase (An increase in ABCB1, ABCC1, or ABCG2 expression of at least 20% at a minimum of one concentration is shown in the table.) |
